The values that follow come from US7906106B2, “In vivo cell trafficking” (General Electric Company, priority 2007, dated 2011).

This series has as its system granuloma-derived nucleated cells. Nature of the series: FACS analysis to determine cell viability (7-AAD) after staining with Cy7.5 NHS-ester. It counts as cell-based, mouse. Conditions: granuloma-derived nucleated cells stained with 1 μg dye in 10 ml PBS, on ice 20 minutes. The procedure: Cell Staining. 1 μg of Cy 7.5-NHS ester was mixed in 10 ml of PBS. The cells are resuspended in the buffer and left on ice for 20 minutes. Cells were washed three times in PBS and the cell pellet is placed under Optix scanner to confirm cell staining. The cells were resuspended in PBS and 100 μl of the cell suspension (containing 0.5×10^6 cells/100 μl) was injected via the tail vein. The stained cell pellet generated signal that was detected by the scanner.
FACS Analysis to Determine Cell Viability. Stained cells were washed three times in PBS and resuspended in 100 μl PBS. The cell suspension was incubated with 20 μl of 7-AAD for 20 minutes at room temperature. The cells are washed once in PBS and resuspended in 500 μl of PBS, then analyzed in FACS for viability.
FACS Analysis for Cellular Markers. The cells were stained with cell markers for leukocytes (CD45) and monocyte/macrophage (CD 11 b). Both CD11b and CD45 antibodies were purchased from Miltenyi Biotec and stained following vendors instructions. Thus, 10 μl of CD11b PE antibody and 10 μl CD45 FITC were incubated with 1×10^6 cells for 20 minutes. The cells were washed in PBS, resuspend in 0.5 mL PBS, and run on Flow Cytometer (Beckman Coulter FC500 MPL). The cells were viable after staining with Cye7.5 NHS-ester and 72% of cell population in the suspension were positive for CD45 and CD11b.
(In flow cytometry, cells or beads pass a laser one at a time.)

Consider Cy7.5-NHS ester [Cye7.5 NHS-ester], for which the “cell viability after staining” value is recorded as “viable”.
